The test has as its target T1, Interleukin-23 receptor (Homo sapiens, UniProt Q5VWK5).
T1 sequence (Q5VWK5 whole entry): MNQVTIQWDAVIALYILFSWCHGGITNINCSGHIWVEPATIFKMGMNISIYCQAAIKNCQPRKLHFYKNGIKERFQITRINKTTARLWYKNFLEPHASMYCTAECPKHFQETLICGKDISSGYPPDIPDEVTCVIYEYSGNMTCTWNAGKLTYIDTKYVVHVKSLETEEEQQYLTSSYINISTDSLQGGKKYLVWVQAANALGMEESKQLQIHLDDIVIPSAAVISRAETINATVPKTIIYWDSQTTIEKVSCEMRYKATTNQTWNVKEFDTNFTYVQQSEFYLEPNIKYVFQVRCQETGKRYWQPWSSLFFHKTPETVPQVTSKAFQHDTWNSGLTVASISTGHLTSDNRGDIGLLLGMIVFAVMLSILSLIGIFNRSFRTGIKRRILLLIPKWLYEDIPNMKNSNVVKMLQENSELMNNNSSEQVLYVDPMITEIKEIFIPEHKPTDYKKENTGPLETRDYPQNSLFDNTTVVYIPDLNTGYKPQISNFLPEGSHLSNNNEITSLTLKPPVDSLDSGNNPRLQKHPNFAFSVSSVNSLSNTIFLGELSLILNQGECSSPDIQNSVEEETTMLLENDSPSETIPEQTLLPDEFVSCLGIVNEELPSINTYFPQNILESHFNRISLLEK
The experiment in a line: Binding affinity to recombinant human flag/His-tagged IL-23R (1 to 353 residues) expressed in HEK293F cells assessed as dissociation rate constant measured over 90 secs by surface plasmon resonance assay.

The structures appear in SMILES notation.

Take `CC(=O)N[C@H]1CCSC[C@@H](C(=O)N[C@@H](Cc2ccc(OCCN)cc2)C(=O)N[C@@H](Cc2c[nH]c3ccccc23)C(=O)N[C@@](C)(CCCCN)C(=O)N[C@@H](CCC(=O)O)C(=O)N[C@@H](CC(N)=O)C(=O)NCC(N)=O)NC(=O)[C@H](CCC(N)=O)NC(=O)[C@H](Cc2c[nH]c3ccccc23)NC(=O)[C@H]([C@@H](C)O)NC(=O)[C@H](CCC(N)=O)NC1=O`: the off-rate (koff) came out at 0.0274 s⁻¹.

The term koff denotes a measure of how fast the partners let go of each other.

The values are drawn from BindingDB's records for doi:10.1021/acsmedchemlett.8b00255 (2018).
